{"source": "paper PMC9133015", "about": "(Nature Communications, 2022)", "test_in_all_cases": "Kinase inhibitor specificity profiling (Reaction Biology Corporation)", "format_in_all_cases": "biochemical", "parameters_in_all_cases": "% Enzyme Activity (relative to DMSO controls): concentration or dose not given beside the values", "key": {"[1]": {"target": "T1, panel of 370 protein kinases (Homo sapiens, UniProt Q86YV6)", "T1 construct": "purchased Reaction Biology Corporation (assay service)", "T1 sequence (Q86YV6 whole entry)": "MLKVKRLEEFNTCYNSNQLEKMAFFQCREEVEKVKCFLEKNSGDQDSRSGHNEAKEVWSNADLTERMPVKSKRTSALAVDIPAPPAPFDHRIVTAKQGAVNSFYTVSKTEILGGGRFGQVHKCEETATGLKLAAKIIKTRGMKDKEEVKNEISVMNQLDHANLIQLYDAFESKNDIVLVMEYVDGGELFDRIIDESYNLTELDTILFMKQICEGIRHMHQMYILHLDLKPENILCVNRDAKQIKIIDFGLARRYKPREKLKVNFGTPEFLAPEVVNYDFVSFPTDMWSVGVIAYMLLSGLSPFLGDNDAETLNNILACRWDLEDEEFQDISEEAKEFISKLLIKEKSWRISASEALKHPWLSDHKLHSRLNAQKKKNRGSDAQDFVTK", "settings": "2 h, kinase MYLK4; read-out: % Enzyme Activity (relative to DMSO controls)"}, "[2]": {"target": "T2, panel of 370 protein kinases (Homo sapiens, UniProt P08069)", "T2 construct": "purchased Reaction Biology Corporation (assay service)", "T2 sequence (P08069 31-1367)": "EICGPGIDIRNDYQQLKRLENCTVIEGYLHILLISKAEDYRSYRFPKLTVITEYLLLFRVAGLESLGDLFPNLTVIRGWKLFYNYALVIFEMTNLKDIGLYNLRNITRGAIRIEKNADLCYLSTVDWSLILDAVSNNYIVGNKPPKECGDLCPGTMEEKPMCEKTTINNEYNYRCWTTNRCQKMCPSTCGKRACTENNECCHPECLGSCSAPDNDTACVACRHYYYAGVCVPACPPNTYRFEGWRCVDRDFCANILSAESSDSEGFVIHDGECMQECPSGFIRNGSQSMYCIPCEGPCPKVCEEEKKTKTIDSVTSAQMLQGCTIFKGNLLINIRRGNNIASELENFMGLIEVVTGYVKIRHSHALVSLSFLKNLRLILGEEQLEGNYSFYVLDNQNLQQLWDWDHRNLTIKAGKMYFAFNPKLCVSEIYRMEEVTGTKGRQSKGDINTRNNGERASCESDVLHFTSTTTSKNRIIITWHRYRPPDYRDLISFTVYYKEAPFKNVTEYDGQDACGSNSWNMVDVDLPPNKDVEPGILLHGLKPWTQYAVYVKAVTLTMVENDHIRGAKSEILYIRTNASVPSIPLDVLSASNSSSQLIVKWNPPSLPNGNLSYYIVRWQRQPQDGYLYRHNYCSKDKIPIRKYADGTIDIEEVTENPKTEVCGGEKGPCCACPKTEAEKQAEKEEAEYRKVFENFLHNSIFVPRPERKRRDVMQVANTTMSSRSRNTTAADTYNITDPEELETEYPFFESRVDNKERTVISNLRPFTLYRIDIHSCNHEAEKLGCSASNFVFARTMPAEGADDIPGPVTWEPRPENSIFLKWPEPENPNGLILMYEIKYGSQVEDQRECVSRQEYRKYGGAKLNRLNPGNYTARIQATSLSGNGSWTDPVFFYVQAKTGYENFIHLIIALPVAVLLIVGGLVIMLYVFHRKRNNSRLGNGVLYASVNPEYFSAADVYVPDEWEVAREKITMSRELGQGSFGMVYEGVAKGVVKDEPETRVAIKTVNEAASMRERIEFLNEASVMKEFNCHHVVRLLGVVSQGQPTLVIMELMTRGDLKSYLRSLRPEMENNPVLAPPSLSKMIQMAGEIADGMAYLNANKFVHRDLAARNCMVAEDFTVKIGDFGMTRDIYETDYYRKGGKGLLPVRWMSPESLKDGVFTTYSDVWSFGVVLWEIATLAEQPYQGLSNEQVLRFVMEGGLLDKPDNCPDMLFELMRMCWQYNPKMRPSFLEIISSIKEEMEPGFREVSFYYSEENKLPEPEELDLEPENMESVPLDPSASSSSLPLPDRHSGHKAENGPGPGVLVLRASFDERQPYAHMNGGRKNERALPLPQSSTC", "settings": "2 h, kinase IGF1R; read-out: % Enzyme Activity (relative to DMSO controls)"}, "[3]": {"target": "T3, panel of 370 protein kinases (Homo sapiens, UniProt P05129)", "T3 construct": "purchased Reaction Biology Corporation (assay service)", "settings": "2 h, kinase PKCg; read-out: % Enzyme Activity (relative to DMSO controls)"}, "[4]": {"target": "T4, panel of 370 protein kinases (Homo sapiens, UniProt Q9UKE5)", "T4 construct": "purchased Reaction Biology Corporation (assay service)", "settings": "2 h, kinase TNIK; read-out: % Enzyme Activity (relative to DMSO controls)"}, "[5]": {"target": "T5, panel of 370 protein kinases (Homo sapiens, UniProt Q6P3R8)", "T5 construct": "purchased Reaction Biology Corporation (assay service)", "settings": "2 h, kinase NEK5; read-out: % Enzyme Activity (relative to DMSO controls)"}, "[6]": {"target": "T6, panel of 370 protein kinases (Homo sapiens, UniProt Q9HCP0)", "T6 construct": "purchased Reaction Biology Corporation (assay service)", "T6 sequence (Q9HCP0 whole entry)": "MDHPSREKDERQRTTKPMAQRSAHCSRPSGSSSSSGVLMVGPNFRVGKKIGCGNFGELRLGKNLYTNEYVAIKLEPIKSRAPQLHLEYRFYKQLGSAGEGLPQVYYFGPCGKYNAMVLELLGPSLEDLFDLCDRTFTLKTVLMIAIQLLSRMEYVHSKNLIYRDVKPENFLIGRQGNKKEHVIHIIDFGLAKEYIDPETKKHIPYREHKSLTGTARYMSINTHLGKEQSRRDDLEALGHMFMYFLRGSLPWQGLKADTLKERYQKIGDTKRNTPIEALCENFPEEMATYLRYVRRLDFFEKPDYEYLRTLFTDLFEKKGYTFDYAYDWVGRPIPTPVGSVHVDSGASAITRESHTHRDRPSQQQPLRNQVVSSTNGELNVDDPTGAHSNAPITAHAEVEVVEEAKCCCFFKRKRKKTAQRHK", "settings": "kinase CK1g1"}, "[7]": {"target": "T7, panel of 370 protein kinases (Homo sapiens, UniProt P11309)", "T7 construct": "purchased Reaction Biology Corporation (assay service)", "T7 sequence (P11309 whole entry)": "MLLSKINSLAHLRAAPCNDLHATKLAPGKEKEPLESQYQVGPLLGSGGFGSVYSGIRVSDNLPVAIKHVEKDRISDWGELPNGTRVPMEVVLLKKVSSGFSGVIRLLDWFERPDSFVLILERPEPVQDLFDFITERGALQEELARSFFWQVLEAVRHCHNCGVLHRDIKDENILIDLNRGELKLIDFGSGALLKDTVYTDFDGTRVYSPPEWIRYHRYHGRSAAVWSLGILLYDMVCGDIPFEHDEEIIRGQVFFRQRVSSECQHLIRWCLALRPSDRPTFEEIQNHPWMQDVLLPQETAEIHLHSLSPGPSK", "settings": "2 h, kinase PIM1; read-out: % Enzyme Activity (relative to DMSO controls)"}, "[8]": {"target": "T8, panel of 370 protein kinases (Homo sapiens, UniProt O94921)", "T8 construct": "purchased Reaction Biology Corporation (assay service)", "T8 sequence (O94921 whole entry)": "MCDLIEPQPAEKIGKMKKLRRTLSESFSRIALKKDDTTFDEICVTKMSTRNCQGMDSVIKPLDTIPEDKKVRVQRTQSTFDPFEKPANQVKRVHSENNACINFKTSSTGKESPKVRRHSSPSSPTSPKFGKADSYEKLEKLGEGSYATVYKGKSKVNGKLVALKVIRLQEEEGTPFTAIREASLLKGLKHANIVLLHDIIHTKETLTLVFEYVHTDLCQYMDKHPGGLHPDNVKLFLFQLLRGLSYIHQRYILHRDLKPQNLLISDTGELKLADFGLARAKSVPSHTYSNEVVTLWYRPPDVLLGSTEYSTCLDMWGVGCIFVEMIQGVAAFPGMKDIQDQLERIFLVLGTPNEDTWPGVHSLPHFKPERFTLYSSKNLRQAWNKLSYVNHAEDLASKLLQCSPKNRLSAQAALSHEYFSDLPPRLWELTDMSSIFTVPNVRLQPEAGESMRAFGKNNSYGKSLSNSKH", "settings": "kinase CDK14/cyclin Y (PFTK1)"}, "[9]": {"target": "T9, panel of 370 protein kinases (Homo sapiens, UniProt P51956)", "T9 construct": "purchased Reaction Biology Corporation (assay service)", "settings": "2 h, kinase NEK3; read-out: % Enzyme Activity (relative to DMSO controls)"}, "[10]": {"target": "T10, panel of 370 protein kinases (Homo sapiens, UniProt O43318)", "T10 construct": "purchased Reaction Biology Corporation (assay service)", "settings": "2 h, kinase TAK1; read-out: % Enzyme Activity (relative to DMSO controls)"}, "[11]": {"target": "T11, panel of 370 protein kinases (Homo sapiens, UniProt O43781)", "T11 construct": "purchased Reaction Biology Corporation (assay service)", "settings": "2 h, kinase DYRK3; read-out: % Enzyme Activity (relative to DMSO controls)"}, "[12]": {"target": "T12, panel of 370 protein kinases (Homo sapiens, UniProt P53779)", "T12 construct": "purchased Reaction Biology Corporation (assay service)", "T12 sequence (P53779 whole entry)": "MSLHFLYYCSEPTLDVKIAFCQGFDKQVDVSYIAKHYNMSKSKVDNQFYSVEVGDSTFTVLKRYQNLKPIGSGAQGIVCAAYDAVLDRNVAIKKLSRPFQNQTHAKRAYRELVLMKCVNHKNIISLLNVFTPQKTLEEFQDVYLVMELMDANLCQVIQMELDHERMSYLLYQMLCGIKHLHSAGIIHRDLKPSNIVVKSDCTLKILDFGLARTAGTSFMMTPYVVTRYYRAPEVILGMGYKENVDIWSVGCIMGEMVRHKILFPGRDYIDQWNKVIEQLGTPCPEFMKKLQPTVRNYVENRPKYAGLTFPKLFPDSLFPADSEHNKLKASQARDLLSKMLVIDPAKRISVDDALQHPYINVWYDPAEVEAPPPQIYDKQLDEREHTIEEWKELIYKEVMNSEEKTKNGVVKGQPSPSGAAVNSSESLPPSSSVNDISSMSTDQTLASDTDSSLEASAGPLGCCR", "settings": "kinase JNK3"}, "[13]": {"target": "T13, panel of 370 protein kinases (Homo sapiens, UniProt P80192)", "T13 construct": "purchased Reaction Biology Corporation (assay service)", "settings": "2 h, kinase MLK1/MAP3K9; read-out: % Enzyme Activity (relative to DMSO controls)"}, "[14]": {"target": "T14, panel of 370 protein kinases (Homo sapiens, UniProt Q8TD08)", "T14 construct": "purchased Reaction Biology Corporation (assay service)", "settings": "2 h, kinase ERK7/MAPK15; read-out: % Enzyme Activity (relative to DMSO controls)"}, "[15]": {"target": "T15, panel of 370 protein kinases (Homo sapiens, UniProt P53355)", "T15 construct": "purchased Reaction Biology Corporation (assay service)", "T15 sequence (P53355 whole entry)": "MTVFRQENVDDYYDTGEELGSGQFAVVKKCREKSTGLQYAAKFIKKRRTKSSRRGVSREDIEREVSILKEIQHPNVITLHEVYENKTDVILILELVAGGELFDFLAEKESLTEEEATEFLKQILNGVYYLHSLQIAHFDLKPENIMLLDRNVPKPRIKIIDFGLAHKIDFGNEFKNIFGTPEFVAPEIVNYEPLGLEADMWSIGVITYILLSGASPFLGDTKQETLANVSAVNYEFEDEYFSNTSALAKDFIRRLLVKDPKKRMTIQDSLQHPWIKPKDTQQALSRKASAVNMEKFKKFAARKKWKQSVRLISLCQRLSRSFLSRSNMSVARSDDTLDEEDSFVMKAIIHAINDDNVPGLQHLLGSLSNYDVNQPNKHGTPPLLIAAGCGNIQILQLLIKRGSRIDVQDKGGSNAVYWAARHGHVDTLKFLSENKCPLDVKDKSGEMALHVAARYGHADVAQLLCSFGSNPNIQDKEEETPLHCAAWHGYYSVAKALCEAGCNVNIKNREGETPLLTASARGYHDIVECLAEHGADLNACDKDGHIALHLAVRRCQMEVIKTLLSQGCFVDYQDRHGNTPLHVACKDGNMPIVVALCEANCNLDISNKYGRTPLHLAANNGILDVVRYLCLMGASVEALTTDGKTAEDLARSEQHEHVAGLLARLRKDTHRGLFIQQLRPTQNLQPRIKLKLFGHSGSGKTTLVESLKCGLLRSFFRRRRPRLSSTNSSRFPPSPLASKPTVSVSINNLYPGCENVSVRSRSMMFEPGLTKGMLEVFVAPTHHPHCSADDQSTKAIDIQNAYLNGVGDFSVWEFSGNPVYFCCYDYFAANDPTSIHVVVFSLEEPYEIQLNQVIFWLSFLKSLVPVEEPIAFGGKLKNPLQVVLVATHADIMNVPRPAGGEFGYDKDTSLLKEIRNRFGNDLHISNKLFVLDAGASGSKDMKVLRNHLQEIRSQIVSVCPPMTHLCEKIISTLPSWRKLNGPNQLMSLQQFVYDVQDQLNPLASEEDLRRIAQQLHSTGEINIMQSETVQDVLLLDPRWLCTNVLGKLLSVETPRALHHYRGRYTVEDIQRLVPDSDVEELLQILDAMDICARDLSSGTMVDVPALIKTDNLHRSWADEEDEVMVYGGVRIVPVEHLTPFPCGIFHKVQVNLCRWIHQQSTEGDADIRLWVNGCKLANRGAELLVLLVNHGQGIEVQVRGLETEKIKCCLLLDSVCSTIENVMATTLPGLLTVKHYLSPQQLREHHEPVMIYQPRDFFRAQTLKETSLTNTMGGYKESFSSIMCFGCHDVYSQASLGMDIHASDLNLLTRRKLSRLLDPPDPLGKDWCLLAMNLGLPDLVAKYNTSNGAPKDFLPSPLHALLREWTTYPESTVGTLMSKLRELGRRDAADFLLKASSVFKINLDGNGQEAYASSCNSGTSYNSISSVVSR", "settings": "2 h, kinase DAPK1; read-out: % Enzyme Activity (relative to DMSO controls)"}, "[16]": {"target": "T16, panel of 370 protein kinases (Homo sapiens, UniProt P31749)", "T16 construct": "purchased Reaction Biology Corporation (assay service)", "settings": "2 h, kinase AKT1; read-out: % Enzyme Activity (relative to DMSO controls)"}, "[17]": {"target": "T17, panel of 370 protein kinases (Homo sapiens, UniProt P10398)", "T17 construct": "purchased Reaction Biology Corporation (assay service)", "settings": "2 h, kinase ARAF; read-out: % Enzyme Activity (relative to DMSO controls)"}, "[18]": {"target": "T18, panel of 370 protein kinases (Homo sapiens, UniProt P36888)", "T18 construct": "purchased Reaction Biology Corporation (assay service)", "settings": "2 h, kinase FLT3; read-out: % Enzyme Activity (relative to DMSO controls)"}, "[19]": {"target": "T19, panel of 370 protein kinases (Homo sapiens, UniProt Q02156)", "T19 construct": "purchased Reaction Biology Corporation (assay service)", "settings": "2 h, kinase PKCepsilon; read-out: % Enzyme Activity (relative to DMSO controls)"}, "[20]": {"target": "T20, panel of 370 protein kinases (Homo sapiens, UniProt Q86Z02)", "T20 construct": "purchased Reaction Biology Corporation (assay service)", "settings": "2 h, kinase HIPK1; read-out: % Enzyme Activity (relative to DMSO controls)"}, "[21]": {"target": "T21, panel of 370 protein kinases (Homo sapiens, UniProt P45985)", "T21 construct": "purchased Reaction Biology Corporation (assay service)", "settings": "2 h, kinase MKK4; read-out: % Enzyme Activity (relative to DMSO controls)"}, "[22]": {"target": "T22, panel of 370 protein kinases (Homo sapiens, UniProt P37023)", "T22 construct": "purchased Reaction Biology Corporation (assay service)", "settings": "2 h, kinase ALK1/ACVRL1; read-out: % Enzyme Activity (relative to DMSO controls)"}}, "note": "Where “and” joins values, the source holds several entries; their conditions need not be identical. Equal entries are not always repeated."}
{"smiles": "CCN1CCN(C(=O)c2ccc(Nc3ncc(F)c(-c4ccc5nc(N(C)C)sc5c4)n3)nc2)CC1", "note": "[YK-2-69]", "values": [{"measurement": "remaining activity at 1 µM", "setting": "[1]", "value": 44.6, "unit": "%"}, {"measurement": "remaining activity at 1 µM", "setting": "[2]", "value": 102, "unit": "%"}, {"measurement": "remaining activity at 1 µM", "setting": "[3]", "value": 90.9, "unit": "%"}, {"measurement": "remaining activity at 1 µM", "setting": "[4]", "value": 70.5, "unit": "%"}, {"measurement": "remaining activity at 1 µM", "setting": "[5]", "value": 72.1, "unit": "%"}, {"measurement": "% Enzyme Activity (relative to DMSO controls)", "setting": "[6]", "value": "102.35% and 96.73%"}, {"measurement": "remaining activity at 1 µM", "setting": "[7]", "value": 77, "unit": "%"}, {"measurement": "% Enzyme Activity (relative to DMSO controls)", "setting": "[8]", "value": "116.35% and 115.11%"}, {"measurement": "remaining activity at 1 µM", "setting": "[9]", "value": 73.1, "unit": "%"}, {"measurement": "remaining activity at 1 µM", "setting": "[10]", "value": 103, "unit": "%"}, {"measurement": "remaining activity at 1 µM", "setting": "[11]", "value": 50.9, "unit": "%"}, {"measurement": "% Enzyme Activity (relative to DMSO controls)", "setting": "[12]", "value": "84.96% and 83.74%"}, {"measurement": "remaining activity at 1 µM", "setting": "[13]", "value": 111, "unit": "%"}, {"measurement": "remaining activity at 1 µM", "setting": "[14]", "value": 65.5, "unit": "%"}, {"measurement": "remaining activity at 1 µM", "setting": "[15]", "value": 62.2, "unit": "%"}, {"measurement": "remaining activity at 1 µM", "setting": "[16]", "value": 98.3, "unit": "%"}, {"measurement": "remaining activity at 1 µM", "setting": "[17]", "value": 90.6, "unit": "%"}, {"measurement": "remaining activity at 1 µM", "setting": "[18]", "value": 92.7, "unit": "%"}, {"measurement": "remaining activity at 1 µM", "setting": "[19]", "value": 91.3, "unit": "%"}, {"measurement": "remaining activity at 1 µM", "setting": "[20]", "value": 106, "unit": "%"}, {"measurement": "remaining activity at 1 µM", "setting": "[21]", "value": 87.2, "unit": "%"}, {"measurement": "remaining activity at 1 µM", "setting": "[22]", "value": 106, "unit": "%"}]}
